Measured values as given in patent publication US5440016A, “Peptides of the formula (KFmoc) ZZZ and their uses” (priority 1993, dated 1995).
Square brackets hold non-standard residues; d marks the D form. Ends that are not written are not given here. Peptide text beside a SMILES is read from it.

What was measured:
[1] = target: T1, trypsin (from bovine pancreas) (Bos taurus, UniProt P00760); experiment: Trypsin inhibition assay; type: biochemical; details: trypsin concentration of 193 nM; substrate N-alpha-benzoyl-DL-arginine-p-nitroanilide; read-out: IC50, trypsin inhibiting activity
T1 construct: trypsin (from bovine pancreas, 8,600 units/mg solid); from tissue; host or cells: bovine pancreas
T1 sequence (P00760 24-246): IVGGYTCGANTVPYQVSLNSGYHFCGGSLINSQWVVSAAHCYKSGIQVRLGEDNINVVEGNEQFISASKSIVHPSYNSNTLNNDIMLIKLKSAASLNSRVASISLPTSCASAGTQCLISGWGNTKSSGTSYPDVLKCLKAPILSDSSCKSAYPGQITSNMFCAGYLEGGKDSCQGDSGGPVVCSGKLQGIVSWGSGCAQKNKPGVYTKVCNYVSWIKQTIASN
Protocol: The assay was performed in a 96-well assay plate, 15 μl trypsin (from bovine pancreas, 8,600 units/mg solid) solution (0.05 mg/ml 0.02 M HCl), 50 μl peptide solution (1 to 3 mM in water), and 100 μl 0.1 M Tris-buffer containing 25 mM CaCl2 (pH 7.8) were mixed in the wells of the assay plate. After incubation for 30 minutes, 100 μl substrate solution (N^α -benzoyl-DL-arginine-p-nitroanilide, 2.3 mM in water) was added. After 30 minutes, absorbances were read at 405 nm using a Titertek multichannel photometer, and expressed as a percentage of the control (well without peptide). The values obtained with serial dilutions of the peptide solutions were used to determine the IC50 values (concentration neccessary for 50% inhibition).

[2] = system: Streptococcus sanguis ATCC 10556; details: Tables 22-23
Protocol: Streptococcus sanguis ATCC 10556 (Gram-positive (+) bacteria present in tooth crevices) was grown overnight at 37° C. in Brain Heart Infusion (BHI) broth. This culture was reinoculated and incubated at 37° C. to reach the exponential phase of bacteria growth, i.e., a final bacterial suspension containing 10^5 to 5×10^5 colony-forming units (CFU)/ml. The concentration of cells was established by plating 100 μl of different dilutions of the culture solution (e.g., 10^-2, 10^-4) and 10^-4) onto solid agar plates. Following an overnight incubation at 37° C., the CFU thus formed were counted on each agar plate. In 96-well tissue culture plates, as control blanks, eight wells per plate contained only medium, while as a positive growth control, eight other wells contained medium plus cells. […] The plates were incubated overnight at 37° C., and the optical density (OD) determined at 620 nm after 20 to 24 hours incubation.

[3] = system: Human red blood cells (RBCs); experiment: Hemolytic activity; type: cell-based; details: at 100 μg/ml, Tables 22-23
[4] = system: Candida albicans ATCC 10231; details: Tables 22-23
[5] = system: Staphylococcus aureus ATCC 29213; details: Tables 22-23
P. aeruginosa ATCC 27853 = experiment: Antimicrobial assay, P. aeruginosa; details: Tables 22-23
Protocol: Escherichia coli ATCC 25922 and P. aeruginosa ATCC 27853 were used as Gram-negative (-) and Staphylococcus aureus ATCC 29213 as Gram-positive (+) bacteria. Bacteria were grown overnight at 37° C. in Mueller-Hinton (MH) broth. This culture was reinoculated and incubated at 37° C. to reach the exponential phase of bacteria growth, i.e., a final bacterial suspension containing 10^5 to 5×10^5 colony-forming units (CFU)/ml. The concentration of cells was established by plating 100 μl of different dilutions of the culture solution (e.g., 10^-2, 10^-3 and 10^-4) onto solid agar plates.
Following an overnight incubation at 37° C., the CFU thus formed were counted on each agar plate. In 96-well tissue culture plates, as control blanks, eight wells per plate contained only medium, while as a positive growth control, eight other wells contained medium plus cells.
The plates were incubated overnight at 37° C., and the optical density (OD) determined at 620 nm after different times of incubation.

[6] = system: Escherichia coli ATCC 25922; details: Tables 22-23

Compound	IC50 [1]	IC50 (μg/ml) against S. sanguis [2]	% hemolysis at 100 μg/ml [3]	IC50 (μg/ml) against C. albicans [4]	IC50 (μg/ml) against S. aureus [5]	IC50 (μg/ml) against P. aeruginosa (P. aeruginosa ATCC 27853)	IC50 (μg/ml) against E. coli [6]
CC(=O)N[C@H](CCCNC(=N)N)C(=O)N[C@H](Cc1ccc(O)cc1)C(=O)N[C@H](CCCNC(=N)N)C(=O)N1CCC[C@@H]1C(=O)N[C@H](Cc1c[nH]c2ccccc12)C(=O)N[C@H](CS)C(N)=O [Ac-ryrpwc-NH2] (Ac-[dR][dY][dR][dP][dW][dC]-NH2)	135 µM						
CC(=O)N[C@H](CCCNC(=N)N)C(=O)N[C@H](Cc1ccc(O)cc1)C(=O)N[C@H](CCCNC(=N)N)C(=O)N1CCC[C@@H]1C(=O)N[C@H](Cc1c[nH]c2ccccc12)C(=O)N1CCC[C@@H]1C(N)=O [Ac-ryrpwp-NH2] (Ac-[dR][dY][dR][dP][dW][dP]-NH2)	62 µM						
CC(=O)N[C@H](CCCNC(=N)N)C(=O)N[C@H](Cc1ccc(O)cc1)C(=O)N[C@H](CCCNC(=N)N)C(=O)N1CCC[C@@H]1C(=O)N[C@H](Cc1c[nH]c2ccccc12)C(=O)N[C@@H](C(N)=O)[C@H](C)O [Ac-ryrpwt-NH2] (Ac-[dR][dY][dR][dP][dW][dT]-NH2)	142 µM						
CC(=O)N[C@H](CCCNC(=N)N)C(=O)N[C@H](Cc1ccc(O)cc1)C(=O)N[C@H](CCCNC(=N)N)C(=O)N1CCC[C@@H]1C(=O)N[C@H](Cc1c[nH]c2ccccc12)C(=O)N[C@@H](C(N)=O)C(C)C [Ac-ryrpwv-NH2] (Ac-[dR][dY][dR][dP][dW][dV]-NH2)	131 µM						
CC(=O)N[C@H](CCCNC(=N)N)C(=O)N[C@H](Cc1ccc(O)cc1)C(=O)N[C@H](CCCNC(=N)N)C(=O)N1CCC[C@@H]1C(=O)N[C@H](Cc1c[nH]c2ccccc12)C(=O)N[C@H](Cc1c[nH]c2ccccc12)C(N)=O [Ac-ryrpww-NH2] (Ac-[dR][dY][dR][dP][dW][dW]-NH2)	125 µM						
Ac-RRWWCG-NH2 [Ac-RRWWCG-NH2]		47 to 66 µg/mL	1.9%	215 to 218 µg/mL	46 to 49 µg/mL	200 µg/mL	22 to 23 µg/mL
Ac-RRWWCH-NH2 [Ac-RRWWCH-NH2]		53 to 62 µg/mL	0.0%	69 to 107 µg/mL	26 to 28 µg/mL	59 to 65 µg/mL	20 to 28 µg/mL
Ac-RRWWCI-NH2 [Ac-RRWWCI-NH2]		17 to 18 µg/mL	8.3%	93 to 102 µg/mL	12 to 18 µg/mL	40 to 70 µg/mL	29 to 33 µg/mL
Ac-RRWWCK-NH2 [Ac-RRWWCK-NH2]		38 to 42 µg/mL	0.5%	100 to 110 µg/mL	17 to 18 µg/mL	150 µg/mL	17 to 21 µg/mL
Ac-RRWWCM-NH2 [Ac-RRWWCM-NH2]		13 to 22 µg/mL	15%	96 to 112 µg/mL	13 to 20 µg/mL	93 to 103 µg/mL	23 to 27 µg/mL
Ac-RRWWCN-NH2 [Ac-RRWWCN-NH2]		230 µg/mL	0.1%	222 to 227 µg/mL	98 to 125 µg/mL	120 µg/mL	40 to 55 µg/mL
Ac-RRWWCP-NH2 [Ac-RRWWCP-NH2]		190 µg/mL	0.0%	217 to 222 µg/mL	49 to 50 µg/mL	200 µg/mL	19 to 27 µg/mL
Ac-RRWWCQ-NH2 [Ac-RRWWCQ-NH2]		230 µg/mL	0.0%	223 to 230 µg/mL	52 to 98 µg/mL	60 to 65 µg/mL	41 to 42 µg/mL
Ac-RRWWCR-NH2 [Ac-RRWWCR-NH2]		22 to 45 µg/mL	0.0%	100 to 101 µg/mL	11 to 12 µg/mL	87 to 130 µg/mL	12 to 18 µg/mL
Ac-RRWWCS-NH2 [Ac-RRWWCS-NH2]		54 to 59 µg/mL	1.8%	211 to 213 µg/mL	41 to 44 µg/mL	290 µg/mL	20 to 21 µg/mL
Ac-RRWWCT-NH2 [Ac-RRWWCT-NH2]		56 to 61 µg/mL	0.5%	216 to 223 µg/mL	38 to 47 µg/mL	180 µg/mL	24 to 28 µg/mL
Ac-RRWWCV-NH2 [Ac-RRWWCV-NH2]		41 to 46 µg/mL	0.0%	103 to 174 µg/mL	19 to 21 µg/mL	33 to 44 µg/mL	17 to 18 µg/mL
Ac-RRWWCW-NH2 [Ac-RRWWCW-NH2]		55 to 78 µg/mL	14%	151 to 166 µg/mL	41 to 43 µg/mL	60 to 88 µg/mL	58 to 61 µg/mL
Ac-RRWWCY-NH2 [Ac-RRWWCY-NH2]		59 to 60 µg/mL	5.8%	184 to 212 µg/mL	12 to 28 µg/mL	97 to 110 µg/mL	20 to 21 µg/mL
Cecropin A (KWKLFKKIEKVGQNIRDGIIKAGPAVAVVGQATQIAK; ends and bridges not checked; UniProt P01507 27-63, looked up) [reference compound]		337 to 400 µg/mL	0.0%	81 to 88 µg/mL	> 500 µg/mL	5 to 6 µg/mL	1 to 2 µg/mL
